Laboratory results reported in US20220196659A1, “METHOD FOR DETERMINING EFFICACY” (LDN Pharma Limited, priority 2019, published 2022).

What was measured:
[1] = system: CD3+/CD8+ cells (killer T-cells); assay: CD3+ activation: CD69 expression of PBMCs cultured with LDN or NTX (flow cytometry); assay type: cell-based; settings: 48 h culture of PBMCs
Experimental: Peripheral-blood mononuclear cells were isolated from whole blood or from the residue product of leucoreduction of whole blood from pathologically healthy donors using Histopaque-1077. The mononuclear fraction was harvested and red blood cell contamination removed by incubation in hypotonic ammonium chloride. Cells were washed in phosphate buffered saline (PBS) and platelet contamination removed by centrifugation at 200 g for 10 min, re-suspended at a concentration of 1×10^6 ml in RPMI-1640 culture medium. […] Peripheral-blood mononuclear cells were washed twice in wash buffer (PBS containing 1% (v/v) FBS and 0.09% (v/v) NaN3), and stained for 30 min at 4° C. with the relevant and stated antibodies for assessment of immune cell profile. Cells were washed in wash buffer and fixed in 4% paraformaldehyde for 20 min at 4° C. Expressions of the surface markers were analysed using a BD Bioscience LSR II flow cytometer with dedicated proprietary software.

[2] = system: pERK; assay: PD analysis: Western blotting of PBMCs from normal volunteers after a single naltrexone tablet; assay type: in vivo, human; settings: Western blot
Experimental: There were 5 treatment cohorts with 8 normal volunteers in each cohort. […] PBMCs were harvested at 0 and 48 h by ficoll extraction and lysed in cell lysis buffer. Western blotting was then performed on the samples, and pERK, tERK, BAX and p21 measured.

SMILES: O=C1CC[C@@]2(O)[C@H]3Cc4ccc(O)c5c4[C@@]2(CCN3CC2CC2)[C@H]1O5 [naltrexone, morphinan-6-one,17-(cyclopropylmethyl)-4,5-epoxy-3,14-dihydroxy-(5+)]
- CD69 expression in CD3+/CD8+ cells ([1]; 10 nM naltrexone (LDN)): increased
- CD69 expression in CD3+/CD8+ cells ([1]; 10 uM naltrexone (NTX)): did not increase
- level of pERK expression at 48 h compared to 0 h ([2]; single dose 1 mg tablet): decreased
- level of pERK expression at 48 h compared to 0 h ([2]; single dose 3 mg tablet): increased
- level of pERK expression at 48 h compared to 0 h ([2]; single dose 4.5 mg tablet): decreased
- level of pERK expression at 48 h compared to 0 h ([2]; single dose 6 mg tablet): decreased
- level of pERK expression at 48 h compared to 0 h ([2]; single dose 10 mg tablet): decreased
